For one assay, the target named is T1, human GSK3α (Homo sapiens, UniProt P49840).
T1 construct: Full length human GSK3α or GSK3B expressed as N-terminal GST fusion proteins; GST (N); purchased Carna Biosciences (Japan); host or cells: baculovirus host
In words: In vitro enzymatic activity assay, GSK3α. It is filed as biochemical. The following applies: 1.0 mM ATP, 1.0 μM peptide substrate, 120 min, 25° C, read-out: Enzyme GSK3α (IC50).

A further assay concerns the target T2, GSK3A (Homo sapiens, UniProt P49840).
T2 construct: expressed in transfected cells
In words: NanoBRET cellular target engagement assay, Nanoluc-GSK3A in HEK293 cells. It is filed as cell-based. The conditions noted are these: NanoBRET GSK3α IC50, HEK293 cells, tracer K-8, 2 hours, 37° C.

Assay [1] addresses T3, GSK3B (Homo sapiens, UniProt P49841). The assay is described as follows: NanoBRET cellular target engagement assay, Nanoluc-GSK3B in HEK293 cells. It is filed as cell-based. Details: expressed in transfected cells. The following applies: NanoBRET GSK3β IC50, HEK293 cells, tracer K-8, 2 hours, 37° C. For orientation: In BRET a luciferase serves as donor, and the signal depends on an acceptor being close.

Assay [2] has as its target T3, GSK3B. The assay is described as follows: In vitro enzymatic activity assay, GSK3β. The conditions noted are these: 1.0 mM ATP, 1.0 μM peptide substrate, 120 min, 25° C, read-out: Enzyme GSK3β (IC50). Also noted: Full length human GSK3α or GSK3B expressed as N-terminal GST fusion proteins; GST (N); purchased Carna Biosciences (Japan); host or cells: baculovirus host. It is filed as biochemical.

For 17 compounds, IC50 results are on record in patent publication US20260327191A1, “GSK3a INHIBITORS AND METHODS OF USE THEREOF” (Blueprint Medicines Corporation, priority 2023, published 2026).

pIC50: −log10 of the molar value. Counter-ions that a name gives are not always drawn.

T3 sequence (P49841 whole entry): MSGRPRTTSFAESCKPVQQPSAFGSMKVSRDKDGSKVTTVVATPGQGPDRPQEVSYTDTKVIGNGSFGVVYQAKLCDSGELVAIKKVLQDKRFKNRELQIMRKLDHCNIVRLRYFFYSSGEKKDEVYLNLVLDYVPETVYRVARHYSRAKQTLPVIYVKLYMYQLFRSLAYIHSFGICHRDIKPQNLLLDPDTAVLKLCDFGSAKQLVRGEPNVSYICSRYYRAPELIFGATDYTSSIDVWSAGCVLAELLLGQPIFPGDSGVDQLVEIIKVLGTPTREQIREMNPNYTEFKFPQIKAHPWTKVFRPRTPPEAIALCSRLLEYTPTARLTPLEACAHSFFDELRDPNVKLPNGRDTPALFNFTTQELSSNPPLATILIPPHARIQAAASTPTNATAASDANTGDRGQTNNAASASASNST
T2 sequence (P49840 whole entry): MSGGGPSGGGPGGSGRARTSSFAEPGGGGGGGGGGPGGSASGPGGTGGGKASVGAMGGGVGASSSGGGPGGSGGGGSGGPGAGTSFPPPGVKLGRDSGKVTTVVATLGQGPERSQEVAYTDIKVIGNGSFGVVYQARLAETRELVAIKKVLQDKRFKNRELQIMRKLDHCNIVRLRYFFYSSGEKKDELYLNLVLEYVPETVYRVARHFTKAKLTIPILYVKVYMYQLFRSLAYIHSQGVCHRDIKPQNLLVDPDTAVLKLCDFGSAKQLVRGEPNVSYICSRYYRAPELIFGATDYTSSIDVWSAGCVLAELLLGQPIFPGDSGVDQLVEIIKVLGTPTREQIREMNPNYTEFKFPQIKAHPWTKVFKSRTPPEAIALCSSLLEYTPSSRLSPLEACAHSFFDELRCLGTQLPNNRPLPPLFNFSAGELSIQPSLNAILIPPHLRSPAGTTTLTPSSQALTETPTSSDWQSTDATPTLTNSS
T1 sequence (P49840 whole entry, the tested form may be a part): as the sequence (P49840 whole entry) above

In the case of `CCOc1cc(C)c(-n2cnc(N)c(C(=O)Nc3cncc(C4CCC(C)N4)c3)c2=O)c(C)c1` (single isomer, unassigned) [Example 93], the pIC50 was 7.50 on human GSK3α, 8.03 against GSK3A, 6.04 against GSK3B [1] and 5.71 at GSK3B [2].
Consider `CCOc1cc(Cl)c(-n2cnc(N)c(C(=O)Nc3cncc([C@@H](C)N)n3)c2=O)c(Cl)c1` (single isomer, unassigned) [Example 219, (R)-4-amino-N-(6-(1-aminoethyl)pyrazin-2-yl)-1-(2,6-dichloro-4-ethoxyphenyl)-6-oxo-1,6-dihydropyrimidine-5-carboxamide or (S)-4-amino-N-(6-(1-aminoethyl)pyrazin-2-yl)-1-(2,6-dichloro-4-ethoxyphenyl)-6-oxo-1,6-dihydropyrimidine-5-carboxamide], for which the negative-log IC50 (pIC50) is 8.27 on human GSK3α, 8.42 at GSK3A, 6.73 on GSK3B [1] and 6.57 on GSK3B [2].
As for `COc1cc(Cl)c(-n2cnc(N)c(C(=O)Nc3cncc([C@@H]4CCCCN4)c3)c2=O)c(Cl)c1` [Example 34, (S)-4-amino-1-(2,6-dichloro-4-methoxyphenyl)-6-oxo-N-(5-(piperidin-2-yl)pyridin-3-yl)-1,6-dihydropyrimidine-5-carboxamide], the pIC50 is 8.19 at human GSK3α, 8.43 at GSK3A, 6.57 at GSK3B [1] and 6.46 on GSK3B [2].
`CCOc1cc(C)c(-n2cnc(N)c(C(=O)Nc3cncc([C@H]4CCCCN4)c3)c2=O)c(C)c1` [Example 91, (R)-4-amino-1-(4-ethoxy-2,6-dimethylphenyl)-6-oxo-N-(5-(piperidin-2-yl)pyridin-3-yl)-1,6-dihydropyrimidine-5-carboxamide]: the negative-log IC50 (pIC50) on human GSK3α is 8.22; at GSK3A, 8.43; against GSK3B [1], 6.70; on GSK3B [2] it was 6.52.
As to `Nc1ncn(-c2c(Cl)cccc2Cl)c(=O)c1C(=O)Nc1cccc([C@@H]2COCCCN2)c1` (single isomer, unassigned) [Example 211, (R)—N-(3-(1,4-oxazepan-3-yl)phenyl)-4-amino-1-(2,6-dichlorophenyl)-6-oxo-1,6-dihydropyrimidine-5-carboxamide or (S)—N-(3-(1,4-oxazepan-3-yl)phenyl)-4-amino-1-(2,6-dichlorophenyl)-6-oxo-1,6-dihydropyrimidine-5-carboxamide], the pIC50 at human GSK3α is 7.80; on GSK3A, 8.07; at GSK3B [1], 6.10; on GSK3B [2], 6.05.
For `COc1cc(Cl)c(-n2cnc(N)c(C(=O)Nc3cncc(C(N)CC(F)F)c3)c2=O)c(Cl)c1` (single isomer, unassigned) [Example 82, (R)-4-amino-N-(5-(1-amino-3,3-difluoropropyl)pyridin-3-yl)-1-(2,6-dichloro-4-methoxyphenyl)-6-oxo-1,6-dihydropyrimidine-5-carboxamide or (S)-4-amino-N-(5-(1-amino-3,3-difluoropropyl)pyridin-3-yl)-1-(2,6-dichloro-4-methoxyphenyl)-6-oxo-1,6-dihydropyrimidine-5-carboxamide], in that order: 8.35, 8.40, 6.57 and 6.61.
For the compound `Nc1ncn(-c2c(Cl)cccc2Cl)c(=O)c1C(=O)Nc1cccc([C@@H]2CNC(=O)CN2)c1` (single isomer, unassigned) [Example 190, (R)-4-amino-1-(2,6-dichlorophenyl)-6-oxo-N-(3-(5-oxopiperazin-2-yl)phenyl)-1,6-dihydropyrimidine-5-carboxamide or (S)-4-amino-1-(2,6-dichlorophenyl)-6-oxo-N-(3-(5-oxopiperazin-2-yl)phenyl)-1,6-dihydropyrimidine-5-carboxamide], the negative logarithm of the IC50 (pIC50) at human GSK3α is 7.42; against GSK3A it was 7.57; against GSK3B [1], 5.48; at GSK3B [2], 6.01.
On the same counts, the results for `CCOc1cc(Cl)c(-n2cnc(N)c(C(=O)Nc3cncc([C@@H]4CCCCN4)c3)c2=O)c(Cl)c1` [Example 133, (S)-4-amino-1-(2,6-dichloro-4-ethoxyphenyl)-6-oxo-N-(5-(piperidin-2-yl)pyridin-3-yl)-1,6-dihydropyrimidine-5-carboxamide] are 8.01, 8.21, 6.46 and 6.29.
On the same counts, the results for `COC[C@@H](N)c1cccc(NC(=O)c2c(N)ncn(-c3c(C)cc(C#N)cc3Cl)c2=O)c1` (atropisomer, axis not shown) [Example 42, (S)-4-amino-N-(3-(1-amino-2-methoxyethyl)phenyl)-1-((S)-2-chloro-4-cyano-6-methylphenyl)-6-oxo-1,6-dihydropyrimidine-5-carboxamide] are 8.32, 8.54, 6.59 and 6.53.
Turning to `CCNCc1cncc(NC(=O)c2c(N)ncn(-c3c(Cl)cc(CC(F)(F)F)cc3Cl)c2=O)c1` [Example 202, 4-amino-1-(2,6-dichloro-4-(2,2,2-trifluoroethyl)phenyl)-N-(5-((ethylamino)methyl)pyridin-3-yl)-6-oxo-1,6-dihydropyrimidine-5-carboxamide], the pIC50 is 8.06 on human GSK3α, 8.23 against GSK3A, 6.41 at GSK3B [1] and 6.36 on GSK3B [2].
As for `Cc1cc(F)cc(C)c1-n1cnc(N)c(C(=O)Nc2cncc([C@H]3CCCCN3)c2)c1=O` [Example 161, (R)-4-amino-1-(4-fluoro-2,6-dimethylphenyl)-6-oxo-N-(5-(piperidin-2-yl)pyridin-3-yl)-1,6-dihydropyrimidine-5-carboxamide trifluoroacetate], the negative logarithm of the IC50 (pIC50) is 8.14 at human GSK3α, 8.52 on GSK3A, 6.54 at GSK3B [1] and 6.42 on GSK3B [2].
As to `CCC[C@@H](N)c1cncc(NC(=O)c2c(N)ncn(-c3c(C)cc(OCC)cc3C)c2=O)c1` [Example 94, (R)-4-amino-N-(5-(1-aminobutyl)pyridin-3-yl)-1-(4-ethoxy-2,6-dimethylphenyl)-6-oxo-1,6-dihydropyrimidine-5-carboxamide], the pIC50 at human GSK3α is 8.12; against GSK3A, 8.18; against GSK3B [1] it was 6.42; on GSK3B [2] it was 6.22.
On to `CCOc1cc(Cl)c(-n2cnc(N)c(C(=O)Nc3cncc(C4COCCCN4)c3)c2=O)c(Cl)c1` (single isomer, unassigned) [Example 135, (R)-N-(5-(1,4-oxazepan-3-yl)pyridin-3-yl)-4-amino-1-(2,6-dichloro-4-ethoxyphenyl)-6-oxo-1,6-dihydropyrimidine-5-carboxamide or (S)-N-(5-(1,4-oxazepan-3-yl)pyridin-3-yl)-4-amino-1-(2,6-dichloro-4-ethoxyphenyl)-6-oxo-1,6-dihydropyrimidine-5-carboxamide], for which the negative logarithm of the IC50 (pIC50) at human GSK3α was 8.49; against GSK3A, 8.35; at GSK3B [1] it was 6.58; at GSK3B [2], 6.73.
For the compound `COCc1cc(Cl)c(-n2cnc(N)c(C(=O)Nc3cncc(C4(N)CCC4)c3)c2=O)c(Cl)c1` [Example 65, 4-amino-N-(5-(1-aminocyclobutyl)pyridin-3-yl)-1-(2,6-dichloro-4-(methoxymethyl)phenyl)-6-oxo-1,6-dihydropyrimidine-5-carboxamide], the pIC50 at human GSK3α was 8.29; at GSK3A, 8.51; against GSK3B [1] it was 6.66; on GSK3B [2] it was 6.52.
Take `CCOc1cc(Cl)c(-n2cnc(N)c(C(=O)Nc3cncc(C(N)CC)c3)c2=O)c(Cl)c1` (single isomer, unassigned) [Example 136, (R)-4-amino-N-(5-(1-aminopropyl)pyridin-3-yl)-1-(2,6-dichloro-4-ethoxyphenyl)-6-oxo-1,6-dihydropyrimidine-5-carboxamide or (S)-4-amino-N-(5-(1-aminopropyl)pyridin-3-yl)-1-(2,6-dichloro-4-ethoxyphenyl)-6-oxo-1,6-dihydropyrimidine-5-carboxamide]: the pIC50 is 8.54 on human GSK3α, 8.74 at GSK3A, 6.93 against GSK3B [1] and 6.69 at GSK3B [2].
Take `CCOc1cc(Cl)c(-n2cnc(N)c(C(=O)Nc3cncc(CNCCO)c3)c2=O)c(Cl)c1` [Example 26, 4-amino-1-(2,6-dichloro-4-ethoxyphenyl)-N-(5-(((2-hydroxyethyl)amino)methyl)pyridin-3-yl)-6-oxo-1,6-dihydropyrimidine-5-carboxamide]: the negative logarithm of the IC50 (pIC50) was 8.26 on human GSK3α, 8.36 against GSK3A, 6.57 at GSK3B [1] and 6.49 at GSK3B [2].
Turning to `CCOC[C@H](N)c1cncc(NC(=O)c2c(N)ncn(-c3c(Cl)cc(COC)cc3Cl)c2=O)c1` (single isomer, unassigned) [Example 69, (R)-4-amino-N-(5-(1-amino-2-ethoxyethyl)pyridin-3-yl)-1-(2,6-dichloro-4-(methoxymethyl)phenyl)-6-oxo-1,6-dihydropyrimidine-5-carboxamide or (S)-4-amino-N-(5-(1-amino-2-ethoxyethyl)pyridin-3-yl)-1-(2,6-dichloro-4-(methoxymethyl)phenyl)-6-oxo-1,6-dihydropyrimidine-5-carboxamide], the pIC50 at human GSK3α is 7.90; on GSK3A it was 8.15; at GSK3B [1], 6.29; on GSK3B [2], 6.27.

As usually defined, the pIC50 is the negative decadic logarithm of the IC50, by convention in mol/L.
